# Experimental data published in ChEMBL document CHEMBL1147123, “Lipoxygenase inhibitory constituents of the fruits of noni (Morinda citrifolia) collected in Tahiti” (J Nat Prod, 2007).
# Experiments:
# [1] = target: T1, Polyunsaturated fatty acid 5-lipoxygenase (Homo sapiens, UniProt P09917); test: Inhibition of 5LOX in human PBMC by EIA assay
# T1 sequence (P09917 whole entry): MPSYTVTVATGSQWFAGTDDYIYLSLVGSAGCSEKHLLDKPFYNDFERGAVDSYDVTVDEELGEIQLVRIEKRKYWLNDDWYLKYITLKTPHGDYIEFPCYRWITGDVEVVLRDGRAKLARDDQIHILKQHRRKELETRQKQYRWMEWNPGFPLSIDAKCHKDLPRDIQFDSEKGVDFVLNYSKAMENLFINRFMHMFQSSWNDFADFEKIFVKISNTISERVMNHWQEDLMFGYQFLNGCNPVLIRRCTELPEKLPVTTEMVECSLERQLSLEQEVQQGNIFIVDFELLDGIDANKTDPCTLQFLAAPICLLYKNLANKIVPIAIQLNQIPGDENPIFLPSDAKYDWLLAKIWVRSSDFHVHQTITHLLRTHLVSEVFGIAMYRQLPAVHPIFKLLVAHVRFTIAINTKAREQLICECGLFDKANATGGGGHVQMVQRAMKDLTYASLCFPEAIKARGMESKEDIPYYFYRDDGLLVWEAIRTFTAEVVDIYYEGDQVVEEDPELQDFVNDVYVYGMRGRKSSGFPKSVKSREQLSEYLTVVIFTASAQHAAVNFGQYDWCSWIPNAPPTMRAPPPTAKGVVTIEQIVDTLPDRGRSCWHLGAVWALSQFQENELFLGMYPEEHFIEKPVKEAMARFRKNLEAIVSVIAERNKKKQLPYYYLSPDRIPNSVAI
# [2] = target: T2, Polyunsaturated fatty acid lipoxygenase ALOX15 (Oryctolagus cuniculus, UniProt P12530); test: Inhibition of 15LOX in rabbit reticulocytes by spectrophotometric assay
# T2 sequence (P12530 whole entry): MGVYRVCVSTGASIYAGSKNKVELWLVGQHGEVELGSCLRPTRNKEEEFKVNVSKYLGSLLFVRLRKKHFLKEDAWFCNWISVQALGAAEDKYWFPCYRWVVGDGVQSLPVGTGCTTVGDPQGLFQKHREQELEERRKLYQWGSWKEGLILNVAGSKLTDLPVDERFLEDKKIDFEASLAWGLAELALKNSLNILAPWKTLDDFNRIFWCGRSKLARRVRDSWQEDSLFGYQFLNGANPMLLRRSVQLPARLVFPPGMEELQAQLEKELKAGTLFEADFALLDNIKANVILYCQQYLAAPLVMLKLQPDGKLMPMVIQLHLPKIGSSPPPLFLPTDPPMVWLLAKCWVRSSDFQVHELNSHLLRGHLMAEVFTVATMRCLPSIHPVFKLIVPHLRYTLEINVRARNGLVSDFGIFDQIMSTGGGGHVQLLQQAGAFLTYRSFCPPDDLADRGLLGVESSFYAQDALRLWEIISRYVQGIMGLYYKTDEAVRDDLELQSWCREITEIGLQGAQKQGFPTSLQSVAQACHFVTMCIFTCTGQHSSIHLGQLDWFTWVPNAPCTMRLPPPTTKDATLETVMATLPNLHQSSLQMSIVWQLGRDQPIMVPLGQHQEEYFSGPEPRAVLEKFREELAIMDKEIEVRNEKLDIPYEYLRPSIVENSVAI
# [3] = target: T3, Prostaglandin G/H synthase 2 (Homo sapiens, UniProt P35354); test: Inhibition of human recombinant COX2 expressed in insect Sf21 cells by EIA assay
# T3 sequence (P35354 whole entry): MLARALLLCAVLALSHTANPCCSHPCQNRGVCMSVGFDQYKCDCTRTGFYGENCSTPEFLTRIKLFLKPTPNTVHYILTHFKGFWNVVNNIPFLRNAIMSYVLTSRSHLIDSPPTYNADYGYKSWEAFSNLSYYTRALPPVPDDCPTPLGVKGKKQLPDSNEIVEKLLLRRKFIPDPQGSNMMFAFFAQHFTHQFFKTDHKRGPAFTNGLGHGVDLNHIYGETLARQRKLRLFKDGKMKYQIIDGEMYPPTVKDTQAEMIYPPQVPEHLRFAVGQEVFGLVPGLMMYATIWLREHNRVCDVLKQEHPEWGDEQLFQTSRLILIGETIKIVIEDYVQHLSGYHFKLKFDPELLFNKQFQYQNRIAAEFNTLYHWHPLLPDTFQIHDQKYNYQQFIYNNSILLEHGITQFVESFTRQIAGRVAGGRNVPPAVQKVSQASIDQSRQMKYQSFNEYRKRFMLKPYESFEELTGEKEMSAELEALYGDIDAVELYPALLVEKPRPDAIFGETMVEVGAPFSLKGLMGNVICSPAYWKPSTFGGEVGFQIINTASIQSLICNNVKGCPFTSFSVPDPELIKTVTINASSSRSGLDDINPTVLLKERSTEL
SMILES,IC50 [1] [µM],IC50 [2] [µM],IC50 [3] [µM]
COc1cc([C@@H]2OC[C@H]3[C@@H]2CO[C@H]3c2ccc(O)c(OC)c2)ccc1O [(-)-PINORESINOL],13.8,,
COc1cc2ccc(=O)oc2cc1O [SCOPOLETIN],> 100,,> 100
O=c1c(O)c(-c2ccc(O)cc2)oc2cc(O)cc(O)c12 [KAEMPFEROL],,,> 100
COc1cc2oc(=O)ccc2cc1O [ISOSCOPOLETIN],> 100,,> 100

# Continued, values first:
IC50 [1] [µM],IC50 [2] [µM],IC50 [3] [µM],SMILES
5.9,0.52,> 100,Oc1ccc([C@@H]2OC[C@@H]3[C@H]2CO[C@H]3c2ccc(O)c(O)c2)cc1O
5.6,0.52,90.2,O=C1O[C@H](c2ccc(O)c(O)c2)[C@H]2CO[C@H](c3ccc(O)c(O)c3)[C@@H]12
9.2,0.76,73.9,OC[C@@H]1[C@@H]([C@H](O)c2ccc(O)c(O)c2)CO[C@@H]1c1ccc(O)c(O)c1
